Values after ≈ are worked out from the molar mass of the structure shown. Structures can show the parent of a compound that is named as a salt.

What all share (experiment): MIC, agar dilution method in Mueller Hinton agar
Assay type in all cases: cell-based
On the technique in general: In agar dilution, organisms are placed on agar that contains the substance at set levels.

Assay [1] concerns Actinetobacter sp. 51-156. The settings on record: read-out: MIC (Minimum Inhibiting Concentration). Here is the method:
(§1) In vitro activity was determined by minimum inhibitory concentration in a microorganism spectum by the agar dilution method in Mueller Hinton agar.

The test system of assay [2] is C. freundii 43. The settings on record: Citrobacter freundii, read-out: MIC (Minimum Inhibiting Concentration). How it is done: as §1
Assay [3] deals with C. freundii 902. To be noted: Citrobacter freundii, read-out: MIC (Minimum Inhibiting Concentration). How it is done: as §1
Assay [4] relates to E. cloacae 908R. The settings on record: Enterobacter cloacae, read-out: MIC (Minimum Inhibiting Concentration). How it is done: as §1
Assay [5] has as its system E. cloacae 908SSi. The settings on record: Enterobacter cloacae, read-out: MIC (Minimum Inhibiting Concentration). How it is done: as §1
The test system of assay [6] is E. coli 25922. The settings on record: Escherichia coli, read-out: MIC (Minimum Inhibiting Concentration). Here is the method: as §1
In assay [7] the test system is E. faecalis 6. The settings on record: Enterococcus faecalis, read-out: MIC (Minimum Inhibiting Concentration). Here is the method:
as §1

Assay [8] relates to K. pneumoniae 418. To be noted: Klebsiella pneumoniae, read-out: MIC (Minimum Inhibiting Concentration). How it is done:
as §1

In assay [9] the test system is L. monocytogenes BK23. The settings on record: Listeria monocytogenes, read-out: MIC (Minimum Inhibiting Concentration). How it is done: as §1
Assay [10] concerns M. catarrhalis RA21. To be noted: Moraxella catarrhalis, read-out: MIC (Minimum Inhibiting Concentration). Here is the method:
as §1

Assay [11] concerns M. morganii 6H-137. To be noted: Morganella morganii, 6H137, read-out: MIC (Minimum Inhibiting Concentration). Here is the method: as §1
In assay [12] the test system is P. mirabilis 2117. The settings on record: Proteus mirabilis, read-out: MIC (Minimum Inhibiting Concentration). How it is done:
as §1

For assay [13], the system named is S. agalactiae QK44. To be noted: Streptococcus agalactiae, read-out: MIC (Minimum Inhibiting Concentration). How it is done: as §1
Assay [14] relates to S. aureus 6538. To be noted: Staphylococcus aureus, read-out: MIC (Minimum Inhibiting Concentration). Here is the method: as §1
Assay [15] deals with S. aureus 734 MRSA. To be noted: Staphylococcus aureus, read-out: MIC (Minimum Inhibiting Concentration). How it is done: as §1
Assay [16] relates to S. marcescens 69438. The settings on record: Serratia marcescens, read-out: MIC (Minimum Inhibiting Concentration). How it is done: as §1
For assay [17], the system named is S. pneumoniae Q19. The settings on record: Streptococcus pneumoniae, read-out: MIC (Minimum Inhibiting Concentration). How it is done:
as §1

For assay [18], the system named is S. pyogenes B15. The settings on record: Streptococcus pyogenes, read-out: MIC (Minimum Inhibiting Concentration). Here is the method: as §1
In assay [19] the test system is S. viridans group 016. To be noted: Streptococcus viridans, GROUP016, read-out: MIC (Minimum Inhibiting Concentration). How it is done:
as §1

In assay [20] the test system is X. maltophilia 1AC739. To be noted: Stenotrophomonas maltophilia, read-out: MIC (Minimum Inhibiting Concentration). How it is done: as §1
Assay [21] relates to P. vulgaris 1028. To be noted: Proteus vulgaris, read-out: MIC (Minimum Inhibiting Concentration). Here is the method: as §1
In assay [22] the test system is H. influenzae 1. The settings on record: Haemophilus influenzae, read-out: MIC (Minimum Inhibiting Concentration). How it is done:
as §1

Assay [23] deals with N. meningitidis 69480. To be noted: Neisseria meningitidis, read-out: MIC (Minimum Inhibiting Concentration). Here is the method: as §1
Assay [24] concerns P. aeruginosa 27853. To be noted: Pseudomonas aeruginosa, read-out: MIC (Minimum Inhibiting Concentration). How it is done:
as §1

Turning to `CC(C)CN1CC/C(=C\C2=C(C(=O)O)N3C(=O)[C@@H](NC(=O)/C(=N\O)c4csc(N)n4)[C@H]3SC2)C1=O.O=C(O)C(F)(F)F` [A, (6R,7R)-7-[(Z)-2-(2-amino-thiazol-4-yl)-2-hydroxyiminoacetylamino]-3-[(E)-1-isobutyl-2-oxo-pyrrolidin-3-ylidenemethyl]-8-oxo-5-thia-1-azabicyclo[4.2.0]oct-2-ene-2-carboxylic acid trifluoroacetate], the MIC turned out to be 16 µg/mL in [1]; 4 µg/mL in [2]; 0.25 µg/mL in assay [3]; 16 µg/mL in [4]; 0.5 µg/mL in assay [5]; 0.25 µg/mL in assay [6]. Besides, the MIC came out at 1 µg/mL in assay [7]; 0.5 µg/mL in assay [8]; 4 µg/mL in assay [9]; 1 µg/mL in assay [10]; 0.25 µg/mL in assay [11]; 0.25 µg/mL in assay [12]. Also, the MIC in assay [13] was 0.25 µg/mL; in [14] it was 1 µg/mL; in assay [15], 4 µg/mL; in [16], 1 µg/mL; in [17], no more than 0.06 µg/mL; in assay [18] it was no more than 0.06 µg/mL. The MIC in assay [19] is no more than 0.06 µg/mL; in assay [20] it was greater than 32 µg/mL.
Regarding `CC(C)(C)CN1CC/C(=C\C2=C(C(=O)O)N3C(=O)[C@@H](NC(=O)/C(=N\O)c4csc(N)n4)[C@H]3SC2)C1=O` [B, (6R,7R)-7-[(Z)-2-(2-amino-thiazol-4-yl)-2-(hydroxyiminoacetylamino]-3-[(E)-1-(2,2-dimethyl-propyl)-2-oxo-pyrrolidin-3-ylidenemethyl]-8-oxo-5-thia-1-azabicyclo[4.2.0]oct-2-ene-2-carboxylic acid trifluoroacetate], the MIC worked out at 32 µg/mL in [1]; 8 µg/mL in assay [2]; 1 µg/mL in assay [3]; 32 µg/mL in assay [4]; 2 µg/mL in [5]; 1 µg/mL in [6]. Further, the MIC in [7] was determined as 2 µg/mL; in assay [8] it was 1 µg/mL; in assay [9], 4 µg/mL; in [10], 16 µg/mL; in assay [11], 0.5 µg/mL; in assay [12], 0.25 µg/mL. Besides, the MIC is 4 µg/mL in assay [21]; 0.5 µg/mL in assay [13]; 1 µg/mL in [14]; 16 µg/mL in assay [15]; 4 µg/mL in assay [16]; no more than 0.06 µg/mL in assay [17]. Moreover, the values for the MIC in assay [18], in assay [19] and in [20] were no more than 0.06 µg/mL, 1 µg/mL and greater than 32 µg/mL, respectively.
`Nc1nc(/C(=N/O)C(=O)N[C@@H]2C(=O)N3C(C(=O)O)=C(/C=C4\CCN(CC5CCCCC5)C4=O)CS[C@H]23)cs1` [C, (6R,7R)-7-[(Z)-2-(2-amino-thiazol-4-yl)-2-(hydroxyiminoacetylamino]-3-[(E)-1-cyclohexylmethyl-2-oxo-pyrrolidin-3-ylidenemethyl]-8-oxo-5-thia-1-azabicyclo[4.2.0]oct-2-ene-2-carboxylic acid trifluoroacetate]: the MIC in assay [1] was 16 µg/mL; in assay [2], 8 µg/mL; in [3], 1 µg/mL; in assay [4], 16 µg/mL; in assay [5] it was 2 µg/mL; in assay [6], 1 µg/mL. Moreover, the MIC in assay [7] came out at 2 µg/mL; in [8] it was 1 µg/mL; in assay [9] it was 4 µg/mL; in assay [10], 16 µg/mL; in assay [11], 4 µg/mL; in assay [12], 0.5 µg/mL. In addition, the MIC in assay [21] was 0.5 µg/mL; in assay [13] it was 0.25 µg/mL; in assay [14], 1 µg/mL; in assay [15], 8 µg/mL; in [16], 4 µg/mL; in assay [17], no more than 0.06 µg/mL. Moreover, the MIC was no more than 0.06 µg/mL in assay [18], 0.5 µg/mL in assay [19] and greater than 32 µg/mL in [20].
With `C=CC1=C(C(=O)O)N2C(=O)[C@@H](NC(=O)/C(=N\O)c3csc(N)n3)[C@H]2SC1` [Cefdinir, reference compound], the MIC was greater than 32 µg/mL in assay [1]; greater than 32 µg/mL in assay [2]; 16 µg/mL (≈ 40.5 µM) in assay [3]; greater than 32 µg/mL in [4]; 32 µg/mL (≈ 80.9 µM) in assay [5]; 0.25 µg/mL (≈ 0.632 µM) in [6]. The MIC in assay [7] was determined as 8 µg/mL (≈ 20.2 µM); in assay [22], 0.5 µg/mL (≈ 1.26 µM); in [8], 0.12 µg/mL (≈ 0.303 µM); in [9], 16 µg/mL (≈ 40.5 µM); in assay [10], 1 µg/mL (≈ 2.53 µM); in assay [11], 8 µg/mL (≈ 20.2 µM). The MIC is no more than 0.06 µg/mL in [23]; greater than 32 µg/mL in assay [24]; 0.12 µg/mL (≈ 0.303 µM) in assay [12]; 1 µg/mL (≈ 2.53 µM) in assay [21]; 0.25 µg/mL (≈ 0.632 µM) in assay [13]; 0.5 µg/mL (≈ 1.26 µM) in assay [14]. Also, the MIC in [15] is greater than 32 µg/mL; in assay [16] it was 16 µg/mL (≈ 40.5 µM); in assay [17], 0.25 µg/mL (≈ 0.632 µM); in assay [18], no more than 0.06 µg/mL; in assay [19] it was 2 µg/mL (≈ 5.06 µM); in assay [20], greater than 32 µg/mL.
In the case of `CO/N=C(\C(=O)N[C@@H]1C(=O)N2C(C(=O)O)=C(CSc3nc(=O)c(=O)[nH]n3C)CS[C@H]12)c1csc(N)n1` [Ceftriaxone, [6R-[6a,7b(Z)]]-7-([[2-Amino-4-thiazolyl)(methoxyimino)acetyl]amino]-8-oxo-3-[[(1,2,5,6-tetrahydro-2-methyl-5,6dioxo-1,2,4-triazin-3-yl)thio]methyl]-5-thia-1-azabicyclo[4.2.0]oct-2-ene-2-carboxylic acid, reference compound], the MIC is 32 µg/mL (≈ 57.7 µM) in assay [1]; 32 µg/mL (≈ 57.7 µM) in assay [2]; 0.25 µg/mL (≈ 0.451 µM) in [3]; greater than 32 µg/mL in [4]; 0.25 µg/mL (≈ 0.451 µM) in assay [5]; no more than 0.06 µg/mL in [6]. Further, the MIC in assay [7] was greater than 32 µg/mL; in assay [22] it was no more than 0.06 µg/mL; in assay [8], no more than 0.06 µg/mL; in assay [9], greater than 16 µg/mL; in assay [10], 1 µg/mL (≈ 1.8 µM); in [11], no more than 0.06 µg/mL. The MIC in [23] is no more than 0.01 µg/mL; in [24], 16 µg/mL (≈ 28.9 µM); in [12], no more than 0.06 µg/mL; in [21], 0.12 µg/mL (≈ 0.216 µM); in [13], no more than 0.06 µg/mL; in assay [14], 4 µg/mL (≈ 7.21 µM). Besides, the MIC in assay [15] was greater than 32 µg/mL; in [16], 0.25 µg/mL (≈ 0.451 µM); in assay [17] it was no more than 0.06 µg/mL; in assay [18], no more than 0.06 µg/mL; in [19], 0.25 µg/mL (≈ 0.451 µM); in [20], greater than 32 µg/mL.

The record behind these values is patent US5925632A, “Derivatives of 3-pyrrolidylidene-2-one-cephalsporines” (Hoffmann-La Roche Inc., priority 1995, dated 1999).
